This note sets out measurements from the METLIN SMRT retention time set (Domingo-Almenara et al. 2019).

A short description of this data set: gradient 5% acetonitrile 3 min, to 50% in 2 min, to 85% in 15 min, held 3 min, 100 µL/min. Conditions: column: Zorbax Extend-C18 2.1 x 50 mm; eluents: water / acetonitrile, 0.1% formic acid. In a few lines:
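Values are retention times taken from adduct peaks that software picked and an analyst inspected. The pure standards were run as mixtures of ~100 molecules on HPLC linked to a quadrupole time-of-flight mass spectrometer, in positive and negative ionization mode. A Zorbax Extend-C18 column (2.1 × 50 mm, 1.8 μm) was used at 100 μL/min with water and acetonitrile, each including 0.1% formic acid.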
In the case of `CCn1nccc1-c1cccc(-c2noc(CNS(=O)(=O)c3ccc(Cl)cc3)n2)c1`, the RP-LC retention time is 986 s.

In the case of `CCS(=O)(=O)c1ccc2c(c1)N(Cc1nc(-c3ccccc3OC)no1)C(=O)CO2`, the RP-LC retention time came to 810 s.

Regarding `O=C(Nc1ccccc1)C1CCN(C(=O)c2ncn3c2COC(c2ccccc2)C3)CC1` (centres undefined), the RP-LC retention time amounted to 752 s.

Take `CCOc1ccccc1N1CCN(CC(O)c2ccc3c(c2)OCO3)CC1` (centres undefined): the RP-LC retention time was found to be 664 s.

`CCCn1cc(C(=O)NCc2cccs2)c2cccnc21` displayed an RP-LC retention time of 799 s.

In turn, `COC1C(=O)N(CC2CC2)C12CCN(S(=O)(=O)Cc1ccccc1)CC2` (centres undefined) returned an RP-LC retention time of 819 s.

With `COc1ccc(-c2cn3c(n2)N(C(=O)c2cccs2)CCC3)cc1`, the RP-LC retention time was 883 s.

`OC(COc1ccc(Cl)cc1Cl)CN1CCCC1` (centres undefined) had an RP-LC retention time of 570 s.

Molecule `CC(C)CCNC(=O)C1CC(=O)N(CCc2c[nH]c3ccc(Cl)cc23)C1` (centres undefined) gave an RP-LC retention time of 809 s.

In turn, `Cc1cnc(-c2ccccc2)n1CCNS(=O)(=O)c1ccc(C#N)cc1` yielded an RP-LC retention time of 634 s.

Take `COc1ccc(Br)cc1CNC(=O)C1CCN(c2ccc3nnc(C)n3n2)CC1`: the RP-LC retention time came out at 797 s.

Turning to `CCC(C)c1ccc(NC(=O)C2CCN(C(=O)C(C)(C)C)CC2)cc1` (centres undefined), the RP-LC retention time was 983 s.

With `Cc1cccc(-c2noc(Cn3c(=O)n(-c4ccccc4)c(=O)c4sccc43)n2)c1`, the RP-LC retention time worked out at 1000 s.

`CCc1ccc(OCc2nc(C)c(C(=O)Nc3nc(-c4ccc(C)cc4)cs3)s2)cc1` came in with an RP-LC retention time of 1420 s.

`Cc1cc(N2CCN(C(=O)Nc3ccc(C)c(Cl)c3)CC2)nc(N2CCOCC2)n1` displayed an RP-LC retention time of 688 s.

In turn, `CC(C)CCn1nc2c(S(=O)(=O)N3CCCCCC3)cccn2c1=O` gave an RP-LC retention time of 982 s.

`CC(C)S(=O)(=O)N1CC(c2nc(CCOCc3ccccc3)no2)C1` came in with an RP-LC retention time of 914 s.

Molecule `O=C(CN1CCC2(CC1)N=C(c1ccc(Cl)cc1)C(=O)N2)Nc1ccc2c(c1)OCO2` had an RP-LC retention time of 681 s.

For the molecule `O=C(Nc1nnc(-c2ccco2)o1)C1c2ccccc2Oc2ccccc21`, the RP-LC retention time worked out at 783 s.

Turning to `N#Cc1cccc(S(=O)(=O)N2CCC(c3nnc(C(=O)Nc4ccc5c(c4)OCO5)s3)CC2)c1`, the RP-LC retention time worked out at 951 s.

Turning to `Cc1sc(-c2nnc(C3CC3)o2)cc1NC(=O)C1CCC1`, the RP-LC retention time came to 856 s.

As for `O=C(Nc1ccccc1)N1CC(Oc2cccc(-c3nc(-c4ccccc4)no3)c2)C1`, the RP-LC retention time stood at 1160 s.

In turn, `CCC(=O)Nc1ccc2c(c1)Sc1ncccc1C(=O)N2CC` registered an RP-LC retention time of 655 s.

On to `CCOC(=O)c1sc(NC(=O)c2ccccc2F)nc1-c1ccccc1`, for which the RP-LC retention time was found to be 1100 s.

`O=C(C1CC1)N1CCc2sc(S(=O)(=O)Nc3ccc(Cl)cc3)cc2C1` yielded an RP-LC retention time of 853 s.

On to `CC(C)(C)c1ccc(-c2noc(Cn3c(=O)n(Cc4ccccc4)c(=O)c4sccc43)n2)cc1`, for which the RP-LC retention time was 1330 s.

In the case of `COc1ccc(C2(C(=O)N3CCC4(CC3)N(C)C(=O)CS4=O)CC2)cc1` (centres undefined), the RP-LC retention time stood at 636 s.

`O=C(c1cccc(Br)c1)N1CCN(Cc2noc3ccccc23)CC1` yielded an RP-LC retention time of 756 s.

For `CCCNC(=O)N1C[C@@H]2C(=O)N(Cc3ccc4c(c3)OCO4)C(=O)[C@@H]2C1`, the RP-LC retention time stood at 708 s.

The molecule `O=C(CN1C(=O)NC2(CCCCC2)C1=O)Nc1cccc(F)c1` came in with an RP-LC retention time of 633 s.

Consider `CCn1cnc2cc(-c3noc(C4CC(=O)N(c5ccc(C)cc5)C4)n3)ccc21` (centres undefined), for which the RP-LC retention time amounted to 700 s.

Take `CCCNC(=O)N1CCCC1c1nc(-c2cccc(C(F)(F)F)c2)no1` (centres undefined): the RP-LC retention time was 963 s.

The molecule `CCc1ccccc1NC(=O)CSc1nnc2c3cc(-c4ccc(C)c(C)c4)nn3ccn12` returned an RP-LC retention time of 1050 s.

`Cc1ccc2c(Nc3cccc(Br)c3)c(C(=O)N3CCOCC3)cnc2n1` registered an RP-LC retention time of 611 s.

In the case of `CCCNC(=O)C1CCCN(c2ccc(SCC(=O)Nc3ccccc3C(=O)OCC)nn2)C1` (centres undefined), the RP-LC retention time was 750 s.

`COCCN1C(=O)CCc2cc(NS(=O)(=O)c3cc(C)c(C)cc3C)ccc21`: the RP-LC retention time came to 833 s.

The molecule `CCN1CCn2cc(S(=O)(=O)Nc3ccc(OC)c(Cl)c3)cc2C1=O` displayed an RP-LC retention time of 730 s.

In the case of `Cc1ccc(C)c(N2CCN(S(=O)(=O)c3cc(-c4cnn5c(C)cc(C)nc45)ccc3C)CC2)c1`, the RP-LC retention time is 1270 s.

On to `CC(CNC(=O)c1nc(Cn2c(=O)oc3ccccc32)no1)c1ccccc1` (centres undefined), for which the RP-LC retention time stood at 932 s.

For the molecule `CCc1ccc(CNC(=O)C2=C3CCCN3c3ccc(F)cc3S2(=O)=O)cc1`, the RP-LC retention time stood at 996 s.

`Cc1cccc(-c2nnc(C)c(N3CCC(C)CC3)n2)c1` showed an RP-LC retention time of 771 s.

Molecule `Cc1ccc2cc(CN3CCC4(CCC4O)CC3)c(=O)[nH]c2c1` (centres undefined) returned an RP-LC retention time of 590 s.

As to `CCOCCCNC(=O)CN1C(=O)CCn2nc(-c3cn(C)c4ccccc34)cc21`, the RP-LC retention time turned out to be 714 s.

Take `O=C(Nc1cccc(N2CCCCC2=O)c1)c1ccc(Br)o1`: the RP-LC retention time came out at 680 s.

For `O=C(COc1cccc(Cl)c1)N1CCN(c2nc(CN3CCCCC3)cs2)CC1`, the RP-LC retention time came to 681 s.

`O=c1c2sccc2n(Cc2nc(-c3ccc(F)c(Br)c3)no2)c(=O)n1-c1ccccc1` came in with an RP-LC retention time of 961 s.

For `CCn1c(CCNC(=O)c2ccc(C)cc2C)nc2cccnc21`, the RP-LC retention time came out at 694 s.

With `CCOC(=O)c1noc2nc(C)nc(NCc3ccc(OC)cc3)c12`, the RP-LC retention time stood at 1010 s.

Regarding `COc1cc(OC)cc(C(=O)NC2CCN(c3cc(-c4ccc(F)cc4)[nH]n3)C2)c1` (centres undefined), the RP-LC retention time amounted to 745 s.

Molecule `O=S(=O)(c1cccn2c(SCc3c(F)cccc3Cl)nnc12)N1CCCC1` gave an RP-LC retention time of 855 s.

For the molecule `CC(=O)c1cccc(NC(=O)Cn2c(N3CCc4ccccc4C3)nc(C)cc2=O)c1`, the RP-LC retention time turned out to be 723 s.

The molecule `O=C(Cn1nc2c3cc(-c4ccccc4)nn3ccn2c1=O)Nc1ccccc1Cl` gave an RP-LC retention time of 902 s.

For the molecule `Cc1ccccc1CNC(=O)C1CCCN(c2nc3ccsc3c(=O)n2Cc2ccc(F)cc2)C1` (centres undefined), the RP-LC retention time was 1010 s.

With `CCCCN1C(=O)C(C)(C(=O)NCc2ccc(C)cc2)Oc2cccnc21` (centres undefined), the RP-LC retention time is 1040 s.

Consider `CCC1Oc2ccc(S(=O)(=O)N3CCC(C(=O)Nc4cccc(F)c4)CC3)cc2NC1=O` (centres undefined), for which the RP-LC retention time came out at 910 s.

The molecule `CCCN1C(=O)c2c(C(=O)NCc3ccc(F)cc3)ncn2CC1(C)C(=O)NCCC(C)C` (centres undefined) had an RP-LC retention time of 824 s.

`COc1cccc(-c2nc3cnccn3c2NCCC(=O)NC2CCCCCC2)c1` yielded an RP-LC retention time of 755 s.

Take `CCn1cc(-c2ccncc2)cc1C(=O)NCc1ccccc1Br`: the RP-LC retention time came to 682 s.

In turn, `Cc1ccccc1NC(=O)C1CCCN(c2ncnc3c2nc2n3CCCCC2)C1` (centres undefined) yielded an RP-LC retention time of 766 s.

On to `CCc1noc([C@@H]2CC(F)(F)CN2C(=O)c2ccco2)n1`, for which the RP-LC retention time is 755 s.

Consider `Cc1ccn2c(Nc3ccccc3C)c(-c3ccccc3)nc2c1`, for which the RP-LC retention time was determined as 745 s.

With `Cc1ccccc1CN1C(=O)N(c2ccc(F)cc2)c2ncccc2S1(=O)=O`, the RP-LC retention time turned out to be 1100 s.

Turning to `CC(C)n1c(N2CCN(C(=O)CCc3nc4ccccc4[nH]3)CC2)cc(=O)n(C(C)C)c1=O`, the RP-LC retention time was 648 s.

`O=C(CCSc1ccccc1)NCCOc1ccc2nnc(-c3ccccc3)n2n1` had an RP-LC retention time of 736 s.

For `Cc1ccccc1Nc1c(-c2cccc(O)c2)nc2cccc(C)n12`, the RP-LC retention time turned out to be 678 s.

The molecule `CCc1cc(N2CCN(C(=O)c3ccc(Br)cc3)CC2)nc2nnc(C)n12` registered an RP-LC retention time of 640 s.

On to `Cc1nc(-c2cc(S(=O)(=O)N3CCC(C(=O)N4CCOCC4)CC3)c(C)s2)no1`, for which the RP-LC retention time was 742 s.

The molecule `Cc1ccc(N2CC(c3nc(-c4ccc5c(c4)ncn5CCC(=O)N4CCCC4)no3)CC2=O)cc1` (centres undefined) displayed an RP-LC retention time of 676 s.

With `Cc1nc2cc(N3CCC(C(=O)O)CC3)cnc2nc1C`, the RP-LC retention time worked out at 611 s.

For `O=C(NCCC1=CCCCC1)C1CCN(S(=O)(=O)c2ccc(-c3noc(C4CC4)n3)cc2)CC1`, the RP-LC retention time was determined as 1090 s.

As to `O=C1CC(c2noc(-c3ccc(F)cc3)n2)CN1Cc1ccccc1` (centres undefined), the RP-LC retention time worked out at 931 s.

In turn, `Clc1ccc(Nc2c(-c3ccc(Cl)cc3)nc3cnccn23)cc1` gave an RP-LC retention time of 1040 s.

In turn, `CCOc1ccc(-n2nnnc2CNS(=O)(=O)c2ccc(CC)s2)cc1` had an RP-LC retention time of 949 s.

Turning to `CC(C)NC(=O)c1c(OCC2CC2)cc(=O)n2c1CCCCC2`, the RP-LC retention time was 673 s.

`CCc1ccccc1NC(=O)NCCNC(=O)c1ccc(NC(=O)C2CC2)cc1` gave an RP-LC retention time of 657 s.

In turn, `COc1ccc(NC(=O)Cn2nc(C(=O)N3CCOCC3)c3ccccc32)cc1` came in with an RP-LC retention time of 712 s.

As for `C[C@H](NC(=O)C1CCCN(S(=O)(=O)c2ccc(F)cc2)C1)C(=O)O` (some centres undefined), the RP-LC retention time turned out to be 669 s.

`CC(=O)N1CCc2cc(N3CC(C(=O)Nc4ccccc4Br)CC3=O)ccc21` (centres undefined) gave an RP-LC retention time of 699 s.

In the case of `O=C(CCn1cnc2cc(-c3noc(/C=C/c4cccs4)n3)ccc21)N1CCCC1`, the RP-LC retention time turned out to be 774 s.
